Test results taken from patent publication US20140288323A1, “CYCLOPROPENIMINE CATALYST COMPOSITIONS AND PROCESSES” (THE TRUSTEES OF COLUMBIA UNIVERSITY IN THE CITY OF NEW YORK, priority 2011, published 2014).
Values joined by “and” are separate entries in the source; they are usually repeats but may differ in a detail not shown here. Equal entries are not always repeated. Structures can show the parent of a compound that is named as a salt. Values belong to the compound of their own block, whether it stands above or below them.

Tests used:
[1] = Storage of cyclopropenimine hydrochloride salts at room temperature; assay type: physicochemical; conditions: stored at room temperature
Protocol: (§1) tert-Butylamine (1.4 mL, 13.25 mmol, 3.0 equiv) was added to a solution of chlorocyclopropenium salt (Yoshida et al., 1971) (1.640 g, 4.42 mmol, 1.0 equiv) in CH2Cl2 (50 mL). A white precipitate was observed as the reaction mixture was stirred for 48 hours at room temperature. The crude reaction mixture was washed with 1.0 M HCl (3×30 mL), dried with anhydrous sodium sulfate and concentrated in vacuo to yield pure cyclopropenimine hydrochloride salt as a white solid (1.490 g, 97% yield). […] Neutral cyclopropenimine was prepared in situ in CD3CN to be used for pKBH+ estimation. ^1H NMR data was recorded after addition of excess sodium hydride or potassium tert-butoxide to the corresponding cyclopropenimine hydrochloride salt in CD3CN. ^1H NMR (300 MHz, CD3CN) δ 3.60 (m, 4H, NCH(CH3)2), 1.10-1.40 (m, 33H, NC(CH3)3, NCH(CH3)2).
Dicyclohexylamine (93.3 mL, 469.0 mmol, 6.0 equiv) was slowly added to a solution of tetrachlorocyclopropene (9.59 mL, 78.16 mmol, 1.0 equiv) in CH2Cl2 (800 mL) in a 3-liter round bottom flask. A white precipitate formed as the reaction mixture was stirred for a further four hours at room temperature. Next, (S)-2-amino-3-phenylpropan-1-ol (13.0 g, 86.0 mmol, 1.1 equiv) was added in one portion and the reaction mixture was stirred for an additional ten hours. The crude reaction mixture was filtered through a celite plug, then washed with 1.0 M HCl (3×400 mL), dried with anhydrous sodium sulfate and concentrated in vacuo to yield pure cyclopropenimine hydrochloride salt as a white solid (45.0 g, 99% yield). […] 13C NMR (100 MHz, CDCl3) δ 137.8, 129.2, 128.0, 126.2, 116.5, 114.5, 63.7, 61.3, 59.1, 38.4, 32.1, 31.9, 25.4, 24.4. X-Ray quality crystals were obtained by slow condensation of hexanes into a benzene solution of cyclopropenimine hydrochloride salt.
Dicyclohexylamine (1.27 mL, 6.42 mmol, 6.0 equiv) was slowly added to a solution of tetrachlorocyclopropene (0.13 mL, 1.07 mmol, 1.0 equiv) in CH2Cl2 (20 mL) at room temperature. A white precipitate formed as the reaction mixture was stirred for a further four hours. Next, (S)-1-phenylethanamine (0.28 mL, 2.14 mmol, 2.0 equiv) was added in one portion and the reaction mixture was stirred overnight. The crude reaction mixture was filtered through a celite plug, then washed with 1.0 M HCl (3×20 mL), dried with anhydrous sodium sulfate and concentrated in vacuo to yield pure cyclopropenimine hydrochloride salt as a white solid (567 mg, 96% yield).
The crude reaction mixture was washed with 1.0 M HCl (3×10 mL), dried with anhydrous sodium sulfate and concentrated in vacuo to yield pure cyclopropenimine hydrochloride salt as a pale yellow solid (440 mg, 98% yield).

[2] = Rearrangement rate study: storage stability of cyclopropenimine 5 and 5.HCl by 1H NMR; assay type: physicochemical
Protocol: Freshly obtained cyclopropenimine 5 was placed in a vial (250 mg per vial) and stored at room temperature and in a −20° C. freezer. Freshly isolated cyclopropenimine hydrochloride salt (250 mg of 5.HCl) was also stored at room temperature. At each time point, a small amount of the solid was removed and its ^1H NMR (CDCl3) was used to measure the ratio of cyclopropenimine to the rearranged product.

[3] = in acetonitrile; Kaljurand et al., 2005; cited from earlier work
[4] = pKBH+ estimation of cyclopropenimine 1 by 1H NMR equilibrium with reference bases in CD3CN; assay type: physicochemical
Protocol: The inventors have measured the acidity of the conjugate acid (pKBH+) of cyclopropenimine (compound 1),
These findings confirm for the first time that 2,3-bis(dialkylamino)cyclopropenimines are indeed potent Brønsted bases.
as §1
(§2) Cyclopropenimine hydrochloride (18.2 mg, 0.053 mmol, 1.0 equiv) and 1,8-diazabicycloundec-7-ene (7.9 μl, 0.053 mmol, 1.0 equiv) were dissolved in CD3CN. The ^1H NMR chemical shift of the cyclopropenimine isopropyl groups was used to estimate the equilibrium ratio and equilibrium constant of the reaction. The equilibrium constant was then used, with the known pKBH+ of DBU (Kaljurand et al., 2005), to determine the estimated pKBH+. The experiment was repeated in triplicate. A representative ^1H NMR spectrum of the experiment is included.
as §2, with “(13.8” for “(18.2”, “0.04” for “0.053”, “tert-Butylimino-tri(pyrrolidino)phosphorane (12.5 mg, 0.04” for “1,8-diazabicycloundec-7-ene (7.9 μl, 0.053”, “BTPP” for “DBU”, “triplicate.” for “triplicate. A representative ^1H NMR spectrum of the experiment is included.”

- storage stability of the hydrochloride salt [1]: without noticeable decomposition
Compound: CC(C)N(c1c(N(C(C)C)C(C)C)c1=NC(C)(C)C)C(C)C [1.HCl, 3-(tert-butylimino)-N1,N1,N2,N2-tetraisopropylcycloprop-1-ene-1,2-diamine hydrochloride salt]

- storage stability of the hydrochloride salt [1]: without noticeable decomposition
- Cyclopropenimine purity (%) ([2]; HCl salt stored at room temperature, 0 days): 100%
- Cyclopropenimine purity (%) ([2]; HCl salt stored at room temperature, 2 days): 100%
- Cyclopropenimine purity (%) ([2]; HCl salt stored at room temperature, 9 days): 100%
- Cyclopropenimine purity (%) ([2]; HCl salt stored at room temperature, 16 days): 100%
- Cyclopropenimine purity (%) ([2]; HCl salt stored at room temperature, 23 days): 100%
- Cyclopropenimine purity (%) ([2]; HCl salt stored at room temperature, 30 days): 100%
- stability of the HCl salt ([2]; at room temperature): indefinitely stable
Compound: Cl.OC[C@H](Cc1ccccc1)N=c1c(N(C2CCCCC2)C2CCCCC2)c1N(C1CCCCC1)C1CCCCC1 [5.HCl, (S)-2-(2,3-bis(dicyclohexylamino)cycloallylamino)-3-phenylpropan-1-ol hydrochloride salt]

- storage stability of the hydrochloride salt [1]: without noticeable decomposition
Compound: C[C@H](N=c1c(N(C2CCCCC2)C2CCCCC2)c1N(C1CCCCC1)C1CCCCC1)c1ccccc1.Cl [7.HCl, (S)—N1,N1,N2,N2-tetracyclohexyl-3-(1-phenylethylimino)cycloprop-1-ene-1,2-diamine hydrochloride salt]

- storage stability of the hydrochloride salt [1]: without noticeable decomposition
Compound: CC(C)N(c1c(N(C(C)C)C(C)C)c1=N[C@H](CO)Cc1ccccc1)C(C)C.Cl [8.HCl, (S)-2-(2,3-bis(diisopropylamino)cycloallylamino)-3-phenylpropan-1-ol hydrochloride salt]

Compound: CN(C)C(=NC(C)(C)C)N(C)C [BTMG]
- pKBH+ [3]: 23.56

Compound: CN(C)P(=NC(C)(C)C)(N(C)C)N(C)C [P1-^tBu]
- pKBH+ [3]: 26.98

Compound: C1CN=C2NCCCN2C1 [TBD]
- pKBH+ [3]: 26.03

- Estimated pKBH+ (CD3CN), BTPP, Average ([4]; average of three trials, BTPP as reference base, CD3CN): 26.96
- Estimated pKBH+ (CD3CN), DBU, Average ([4]; average of three trials, DBU as reference base, CD3CN): 26.74
- acidity of the conjugate acid (pKBH+) ([4]; in acetonitrile): 26.9
- basicity relative to comparable guanidine BTMG ([4]; in acetonitrile): three orders of magnitude more basic
- Estimated pKBH+ (CD3CN), BTPP ([4]; single trial, BTPP as reference base, CD3CN): 27.00 and 26.85 and 27.03
- Estimated pKBH+ (CD3CN), DBU ([4]; single trial, DBU as reference base, CD3CN): 26.75 and 26.74
Compound: CC(C)N(c1c(N(C(C)C)C(C)C)c1=NC(C)(C)C)C(C)C [cyclopropenimine 1, 3-(tert-butylimino)-N1,N1,N2,N2-tetraisopropylcycloprop-1-ene-1,2-diamine]

- half-life ([2]; neat solid in a vial, pure sample stored at room temperature, followed over 30 days, read-out: t1/2 of conversion to rearranged compound 13 (converted)): ~12 days
- Cyclopropenimine purity (%) ([2]; solid stored at rt, 0 days): 100%
- Cyclopropenimine purity (%) ([2]; solid stored at rt, 2 days): 78%
- Cyclopropenimine purity (%) ([2]; solid stored at rt, 9 days): 57%
- Cyclopropenimine purity (%) ([2]; solid stored at rt, 16 days): 39%
- Cyclopropenimine purity (%) ([2]; solid stored at rt, 23 days): 25%
- Cyclopropenimine purity (%) ([2]; solid stored at rt, 30 days): 5%
- Cyclopropenimine purity (%) ([2]; solid stored at −20° C., 0 days): 100%
- Cyclopropenimine purity (%) ([2]; solid stored at −20° C., 2 days): 100%
- Cyclopropenimine purity (%) ([2]; solid stored at −20° C., 9 days): 98%
- Cyclopropenimine purity (%) ([2]; solid stored at −20° C., 16 days): 96%
- Cyclopropenimine purity (%) ([2]; solid stored at −20° C., 23 days): 96%
- Cyclopropenimine purity (%) ([2]; solid stored at −20° C., 30 days): 94%
- sample still intact ([2]; stored at −20° C., after 30 days): 94%
Compound: OC[C@H](Cc1ccccc1)N=c1c(N(C2CCCCC2)C2CCCCC2)c1N(C1CCCCC1)C1CCCCC1 [cyclopropenimine 5, (S)-2-(2,3-bis(dicyclohexylamino)cycloallylamino)-3-phenylpropan-1-ol]
